Measurements taken from US5834492A, “Water soluble orally effective iron chelator” (Jacobus Pharmaceutical Co., priority 1997, dated 1998).
≈ marks a conversion by molar mass, not a printed value. Where “and” joins values, the source holds several entries; their conditions need not be identical. Equal entries are not always repeated. Entries after “also recorded” stand apart in the source; their conditions may differ. Structures can show the parent of a compound that is named as a salt. Where two headings read alike, the source gives them in different places.

Experiments:
[1] = Solubility in ethanol or acetonitrile; type: physicochemical
Procedure: PIH has very limited solubility in water and ethanol, and in fact, to solubilize 28.6 grams of PIH would require 30,000 cc of absolute ethanol. Nevertheless, the aforesaid molar concentrations were used to produce a suspension to which was added the ethereal HCI solution.
As a result of applicant's work, this procedure raises even more questions of operability than the immediately preceding one, since the acetonitrile solubility of the precipitate obtained after treatment of an authentic sample of PIH with ethereal HCI, is virtually nil. Specifically, attempts to solubilize the product succeeded in dissolving only 40 ma of material per 500 cc of hot acetonitrile--a ratio of 1 gram per 12.5 liters of acetonitrile (a ratio of […]) and no precipitate was obtained after addition of dry ether--even upon cooling the solution. Applicants were unable to liberate any product from the recrystallization system disclosed in U.S. 2,810,725.
This cannot be accomplished since the solubility of PIH in ethanol is approximately 1 mg/mL and would require a volume of 30,000 cc for dissolution as described and not 500 cc.
There was utilized a suspension of 57.2 mg/cc (1.43 g, 5 mMol in 25 cc absolute ethanol) to which were added two equivalents (10 mmoles) of 4 N ethereal HCI (2.5 cc) and stirred for one hour. The light yellow starting material became a copious off-white suspension. This was filtered and dried to give 1.68 g of a solid with melting point 250°-252°C. (dec) with discoloration beginning at 240° C. An authentic sample of PIH dihydrochloride, synthesized according to Example 1 supra, melts at 255°-257° C.

[2] = noted by Sah 1953; cited from earlier work
[3] = cited from earlier work
[4] = continuous infusion in solution; rats; cited from earlier work
[5] = Human studies of oral PIH: iron excretion, toxicity, palatability; type: in vivo; details: in the mouth
Text: There has, heretofore been no convenient, safe and effective orally administered chelator that has been developed for clinical use.

[6] = cited from earlier work; remark: listed apart in the source
[7] = below pH 3; chromatographic investigations; cited from earlier work
[8] = Water / aqueous solubility at 25 °C; type: physicochemical
[9] = Iron complexation (chelation); details: aqueous solutions in vitro and in vivo
[10] = Stability of the solid to light and anhydrous heat; type: physicochemical
[11] = Total daily iron excretion in iron overloaded patients (enteric granules or glycine-buffered capsules); details: patients with iron overload
Procedure: Five human subjects were administered PIHDH (PIH(HCI)2) as either enteric coated granules at 546 mg three times daily representing the lowest dose tested at 20 mg/kg per day.

[12] = Biliary iron excretion in iron-overloaded rats after gavage, bile duct cannulated; type: in vivo, Male Sprague-Dawley rats; details: gavage 100 mg/kg, versus PIH equivalent dosage
Procedure: Measurement of the bioefficiency of iron chelators have been carried out in rats using the methods of Brittenham supra and Park et al,(C. Park, B. R. Bacon, G. M. Brittenham and N. Tas. Lab Invest. 57:555-63 (1987).
Male Sprague-Dawley rats weighing approximately 200 g were housed in cages and randomly assigned to three groups containing at least 6 animals. The groups received (i) one ml of saline alone administered by gavage (ii) 1 mL saline with PIH as the free base, 100 mg/kg body weight, added just prior to administration by gavage and (iii) 1 mL saline with PIHDH, 100 mg/kg body weight, added just prior to administration by gavage. The doses of chelators tested are chosen to provide direct comparisons with previous assay data. Animals receiving the chelators or saline by gavage receive doses 45 minutes prior to surgery. Animals are placed under anesthesia and the bile duct cannulated to permit continuous collection of bile during the assay time period. The bile is collected at half-hour intervals for 5 or 6 hours and the iron content determined spectrophotometrically, using bathophen-anthroline sulfonate for color development as published by Pippard et al, (M. J. Pippard, D. K. Johnson and C. A. Finch. Blood. 58:685-92 (1981)). […]

[13] = Stability/degradation in aqueous medium of given pH; type: physicochemical; details: for degraded at 3 h: aqueous medium, read-out: degradation after three hours
[14] = water, 25 °C (FIG. 16), read-out: water solubility

Cc1ncc(CO)c(C=NNC(=O)c2ccncc2)c1O [product]
solubility in acetonitrile, in words ([1]; acetonitrile): virtually nil
solubility of product in acetonitrile ([1]; acetonitrile): less than 0.1 mg/mL
amount of material dissolved per 500 cc hot acetonitrile ([1]; per 500 cc hot acetonitrile): 40 ma

Cc1ncc(CO)c(/C=N/NC(=O)c2ccncc2)c1O [PIH, 3-hydroxy-5-hydroxy-methyl-2-methyl-4-pyridinylcarboxaldehyde 4' pyridinecarboxylic acid hydrazone]
water solubility, in words (literature) [2]: very low water solubility
absorption after oral administration [3]: not fully absorbed in vivo after oral administration
PIH crystals in feces ([3]; treated animals/subjects, oral): presence of PIH crystals in the feces of treated animals; also recorded: crystals actually visible in feces of treated subjects
iron excretion compared to desferrioxamine [4]: quantitatively similar iron excretion
taste [5]: unpleasant taste
iron excretion compared with subcutaneously injected desferrioxamine ([6]; oral PIH at three times the molar rates, preliminary human studies): less than half of that expected with subcutaneously injected desferrioxamine
toxicity at doses needed for sufficient iron excretion ([6]; oral capsule, >60 mg/kg, people): toxicity characterized by elevated hepatic enzymes
oral dose needed to elicit sufficient iron excretion ([6]; oral capsule, people): > 60 mg/kg
oral efficacy / iron removal in humans ([6]; oral, humans): poor oral efficacy; also recorded: inadequate levels of iron are removed in humans
palatability ([6]; oral, phase I clinical trials): highly unpalatable with a lingering unpleasant taste and oral sensation
instability under acidic conditions [7]: dissolution below pH 3 can lead to decomposition
volume of absolute ethanol required to dissolve 28.6 g PIH ([1]; absolute ethanol): 30,000 cc and 30.000 cc
solubility in ethanol ([1]; ethanol): approximately 1 mg/mL
water solubility ([8]; water, 25 °C (FIG. 16)): 0.14 mg/mL (≈ 489 µM)
solubility [8, 14]: 0.14 mg/mL (≈ 489 µM)

Cc1ncc(CO)c(C=NNC(=O)c2ccncc2)c1O [PIHDH, 3-hydroxy-5-(hydroxy-methyl)-2-methyl-4-pyridinecarboxaldehyde-4' pyridinecarboxylic acid hydrazone dihydrochloride]
ability to complex iron [9]: preserves its ability to complex iron in aqueous solutions in vitro and in vivo
stability of crystals [10]: stable to light and anhydrous heat
absorption of enteric granules or buffered capsules [11]: adequately absorbed
total biliary iron excretion relative to PIH (percent) [12]: 250%
total biliary iron excretion relative to PIH (times greater) [12]: 2.5 times
degraded at 3 h ([13]; pH 1.29, 3 h): 44.1%
degraded at 3 h ([13]; pH 2.78, 3 h): 17.7%
decomposition when buffered ([13]; buffered above 3.0 to 7.0): virtually little to virtually no decomposition
degradation after three hours ([13]; pH 6.8, 3 h): no degradation
water solubility relative to PIH (times more water soluble) ([8]; PIHDH versus PIH base, dihydrochloride): 450 times and > 450 times
solubility [8, 14]: 63 mg/mL
water solubility, in words ([8]; water, dihydrochloride): better water solubility than the free base and its related hydrated species

Cc1ncc(CO)c(C=NNC(=O)c2ccncc2)c1O [Pyridoxal isonicotinoyl hydrazone isethionate]
solubility ([8]; 0.1 n hcl, read-out: solubility in 0.1N HCl): 36 mg/mL
solubility ([8]; water, read-out: water solubility): 2.7 mg/mL

Cc1ncc(CO)c(C=NNC(=O)c2ccncc2)c1O [hydrochloride-1.5 hydrate of PIH, 3-hydroxy-5-(hydroxymethyl) -2-methyl-4-pyridinecarboxaldehyde-4' pyridin ecar-boxylic acid hydrazone monohydrochloride trihemihydrate]
water solubility ([8]; water, 25 °C (FIG. 16)): 34 mg/mL
water solubility, in words ([8]; water, listed as monohydrochloride 1.5 hydrate): slower solubilization
